Experimental data from PubChem BioAssay (NCI).
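The compound was tested at five concentrations on cells cultured in 96-well plates, with a 48-hour exposure period. GI50 is the concentration that inhibits growth by half. TGI: concentration producing complete growth inhibition.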

Tests used:
Assay in all cases: inhibition of tumour cell growth, NCI panel, 48 h
[1] = test system: ACHN renal
[2] = test system: RPMI-8226 leukemia
[3] = test system: U251 CNS
[4] = test system: NCI-H226 lung
[5] = test system: SK-MEL-28 melanoma
[6] = test system: HS 578T breast
[7] = test system: SNB-75 CNS
[8] = test system: T-47D breast
[9] = test system: SNB-19 CNS
[10] = test system: HL-60(TB) leukemia

For `C/C(=N/N=C(N)N)c1ccc(NC(=O)Nc2ccc(/C(C)=N/N=C(N)N)cc2)cc1`, the GI50 [1] was 20.7 µM, the TGI [1] was over 55.4 µM and the GI50 [2] was 3.77 µM. For the same compound, the TGI [2] was 34.2 µM, the GI50 [3] was 7.94 µM and the TGI [3] was 24.3 µM. The GI50 [4] was 25 µM, the TGI [4] was over 94.6 µM and the GI50 [5] was 15 µM. It also gave a TGI [5] of 39.9 µM, a GI50 [6] of 26.5 µM and a TGI [6] of over 66.6 µM. For the same compound, the GI50 [7] was 17.6 µM, the TGI [7] was 38.1 µM and the GI50 [8] was 8.29 µM. For the same compound, the TGI [8] was 34.6 µM, the GI50 [9] was 19.6 µM and the TGI [9] was 45 µM. The GI50 [10] was 7.89 µM and the TGI [10] was over 28.4 µM.

`CCn1ccc(NS(=O)(=O)c2ccc(N)cc2)nc1=O` showed a GI50 [1] of over 100 µM, a TGI [1] of over 100 µM and a GI50 [2] of over 100 µM. The TGI [2] was over 100 µM, the GI50 [3] was over 100 µM and the TGI [3] was over 100 µM. The GI50 [4] was over 100 µM, the TGI [4] was over 100 µM and the GI50 [5] was over 100 µM. For the same compound, the TGI [5] was over 100 µM, the GI50 [6] was 33.8 µM and the TGI [6] was over 100 µM. The GI50 [7] was over 100 µM, the TGI [7] was over 100 µM and the GI50 [8] was over 100 µM. It also gave a TGI [8] of over 100 µM, a GI50 [9] of over 100 µM and a TGI [9] of over 100 µM. The GI50 [10] was over 100 µM and the TGI [10] was over 100 µM.

`CC1(C)N=C(N)N=C(N)N1c1cccc(Br)c1` was tested, and the GI50 [1] was 0.786 µM, the TGI [1] was over 100 µM and the GI50 [2] was 6.81 µM. It also gave a TGI [2] of over 100 µM, a GI50 [3] of 0.321 µM and a TGI [3] of over 100 µM. For the same compound, the TGI [4] was over 100 µM, the GI50 [5] was 14 µM and the TGI [5] was over 100 µM. It also gave a GI50 [6] of over 30.4 µM, a TGI [6] of over 100 µM and a GI50 [7] of over 59 µM. The TGI [7] was over 100 µM, the GI50 [8] was over 82.7 µM and the TGI [8] was over 100 µM. The GI50 [9] was 1.68 µM, the TGI [9] was over 100 µM and the GI50 [10] was 0.491 µM. For the same compound, the TGI [10] was over 73.8 µM.

`COc1ccc2c(c1)C(=O)c1c-2c(Nc2cccc(C(C)=O)c2)nc2ccccc12` showed a GI50 [1] of 4.21 µM, a TGI [1] of 14.9 µM and a GI50 [2] of 17.5 µM. It also gave a TGI [2] of 70.7 µM, a GI50 [3] of 3.09 µM and a TGI [3] of 12.3 µM. For the same compound, the GI50 [4] was 11.7 µM, the TGI [4] was 35.8 µM and the GI50 [5] was 15.1 µM. For the same compound, the TGI [5] was 64.6 µM, the GI50 [6] was 3.19 µM and the TGI [6] was 15.5 µM. The GI50 [7] was 5.55 µM, the TGI [7] was 20.5 µM and the GI50 [8] was 13.6 µM. The TGI [8] was 55.2 µM, the GI50 [9] was 5.99 µM and the TGI [9] was 18.3 µM. It also gave a GI50 [10] of over 100 µM and a TGI [10] of over 100 µM.

`COCc1c(-c2ccc(NC(=O)Nc3cc(C(F)(F)F)ccc3F)c(F)c2)c2c(N)ncnn2c1CN1CCOCC1` was tested, and the GI50 [1] was 1.48 µM, the TGI [1] was over 10 µM and the GI50 [2] was 1.91 µM. For the same compound, the TGI [2] was 7.85 µM, the GI50 [3] was 2.56 µM and the TGI [3] was over 10 µM. The GI50 [4] was 0.0747 µM, the TGI [4] was 5.25 µM and the GI50 [5] was 3.02 µM. It also gave a TGI [5] of over 10 µM, a GI50 [6] of 0.138 µM and a TGI [6] of 0.733 µM. For the same compound, the GI50 [7] was 0.492 µM, the TGI [7] was 3.25 µM and the GI50 [8] was 2.14 µM. The TGI [8] was 9.95 µM, the GI50 [9] was 2.93 µM and the TGI [9] was over 10 µM. For the same compound, the GI50 [10] was 3.46 µM and the TGI [10] was over 10 µM.

Compound `C[C@@H](Oc1cc(-n2cnc3ccc(OC[C@@H](O)CO)cc32)sc1C(N)=O)c1ccccc1Cl` has a GI50 [1] of 6.11 µM, a TGI [1] of over 25 µM and a GI50 [2] of 1.53 µM. The TGI [2] was over 25 µM, the GI50 [3] was 0.126 µM and the TGI [3] was over 25 µM. The GI50 [4] was 2.82 µM, the TGI [4] was over 25 µM and the GI50 [5] was 0.229 µM. The TGI [5] was over 25 µM, the GI50 [6] was 0.171 µM and the TGI [6] was 5.31 µM. For the same compound, the GI50 [7] was 0.29 µM, the TGI [7] was 4.41 µM and the GI50 [8] was 1.22 µM. For the same compound, the TGI [8] was over 25 µM, the GI50 [9] was 0.339 µM and the TGI [9] was over 25 µM. It also gave a GI50 [10] of 0.0684 µM and a TGI [10] of 0.869 µM.

`Cc1cc(=O)oc2cc(OC/C=C3\CCC(=O)O3)ccc12` was tested, and the GI50 [1] was 5.05 µM, the TGI [1] was 15.4 µM and the GI50 [2] was 3.2 µM. The TGI [2] was 18.7 µM, the GI50 [3] was 14.5 µM and the TGI [3] was 30.9 µM. For the same compound, the GI50 [4] was 24 µM, the TGI [4] was over 63.1 µM and the GI50 [5] was 16.4 µM. The TGI [5] was 33.6 µM, the GI50 [6] was 22.9 µM and the TGI [6] was over 87.4 µM. The GI50 [7] was 16.8 µM, the TGI [7] was 40.1 µM and the GI50 [8] was 14.3 µM. For the same compound, the TGI [8] was 35.3 µM, the GI50 [9] was 15.5 µM and the TGI [9] was 49.2 µM. The GI50 [10] was 4.47 µM and the TGI [10] was 32.2 µM.

`Nc1ncnc2c1ccn2[C@@H]1O[C@H]([C@H](O)c2ccc(Cl)c(F)c2)[C@@H](O)[C@H]1O` was tested, and the GI50 [1] was over 100 µM, the TGI [1] was over 100 µM and the GI50 [2] was over 100 µM. It also gave a TGI [2] of over 100 µM, a GI50 [3] of over 100 µM and a TGI [3] of over 100 µM. It also gave a GI50 [4] of 34.5 µM, a TGI [4] of over 100 µM and a GI50 [5] of over 100 µM. The TGI [5] was over 100 µM, the GI50 [6] was over 100 µM and the TGI [6] was over 100 µM. The GI50 [7] was over 100 µM, the TGI [7] was over 100 µM and the GI50 [8] was 23.5 µM. The TGI [8] was over 100 µM, the GI50 [9] was over 100 µM and the TGI [9] was over 100 µM. The GI50 [10] was over 100 µM and the TGI [10] was over 100 µM.

`FC(F)(F)c1cc(Nc2ccc3cc(OCCCN4CCOCC4)ccc3n2)ccc1Cl` gave a GI50 [1] of 2.05 µM, a TGI [1] of 4.86 µM and a GI50 [2] of 1.11 µM. The TGI [2] was 6.61 µM, the GI50 [3] was 1.27 µM and the TGI [3] was 2.75 µM. The GI50 [4] was 2.56 µM, the TGI [4] was 11.7 µM and the GI50 [5] was 1.59 µM. It also gave a TGI [5] of 3.39 µM, a GI50 [6] of 1.68 µM and a TGI [6] of 4.36 µM. For the same compound, the GI50 [7] was 1.61 µM, the TGI [7] was 3.92 µM and the GI50 [8] was 2.51 µM. The TGI [8] was 7.51 µM, the GI50 [9] was 1.84 µM and the TGI [9] was 3.79 µM. For the same compound, the GI50 [10] was 2.24 µM and the TGI [10] was 6.49 µM.

With `O=C(O)Cc1cccc2c(=O)c3cccc([N+](=O)[O-])c3oc12` the TGI [1] was over 100 µM, the TGI [2] was over 100 µM and the TGI [3] was over 100 µM. For the same compound, the TGI [4] was over 100 µM, the TGI [5] was over 100 µM and the TGI [6] was over 100 µM. It also gave a TGI [7] of over 100 µM, a TGI [8] of over 100 µM and a TGI [9] of over 100 µM. The TGI [10] was over 100 µM.

In the case of `C[CH2][Sn]([CH2]C)([O]C(=O)c1ccc(OC)c(OC)c1OC)[O]C(=O)c1ccc(OC)c(OC)c1OC`, the GI50 [1] is reported as 51.4 µM, the TGI [1] is reported as over 78.9 µM and the GI50 [2] is reported as 22.7 µM. For the same compound, the TGI [2] was 72.2 µM, the GI50 [3] was over 75.8 µM and the TGI [3] was over 100 µM. For the same compound, the GI50 [4] was 19.7 µM, the TGI [4] was 46 µM and the GI50 [5] was 26.6 µM. For the same compound, the TGI [5] was over 69 µM, the GI50 [6] was 23.2 µM and the TGI [6] was 88.8 µM. It also gave a GI50 [7] of 19.1 µM, a TGI [7] of 62.8 µM and a GI50 [8] of 12.7 µM. The TGI [8] was 26.1 µM, the GI50 [9] was 53.5 µM and the TGI [9] was over 67.5 µM. It also gave a GI50 [10] of over 63.5 µM and a TGI [10] of over 100 µM.

`C/C(=N/Nc1nc(C)cc(=O)[nH]1)C(=O)O` was tested, and the TGI [1] was over 100 µM, the TGI [2] was over 100 µM and the TGI [3] was over 100 µM. It also gave a TGI [4] of over 100 µM, a TGI [5] of over 100 µM and a TGI [6] of over 100 µM. For the same compound, the TGI [7] was over 100 µM, the TGI [8] was over 100 µM and the TGI [9] was over 100 µM. For the same compound, the TGI [10] was over 100 µM.
